From patent US10815222B2, “Compounds for use in the treatment of kinetoplastid infection” (C.N.C.C.S. S.c.a.r.l. COLLEZIONE NAZIONALE DEI COMPOSTI …, priority 2016, dated 2020)

What follows are compounds tested on Bloodstream form of Trypanosoma brucei, strain Lister 427 (assay: Trypanosoma brucei growth inhibition assay (CellTiter-Glo, 24 h)). Conditions: Trypanosoma brucei; T. Brucei Growth Inibition Assay, class symbols; read-out: T. Brucei GI EC50.
Format: cell-based
Description: Bloodstream form of Trypanosoma brucei, strain Lister 427 (provided by Prof. Miguel Navarro, Instituto de Parasitologia y Biomedicina “Lopez-Neyra” Avda. Conocimiento S/N Parque Tecnologico Ciencias de la Salud—Spain; ref. Navarro M. and Cross G. A. M. Molecular and Cellular Biology, 1996, Vol. 16, No. 7, pp. 3615-3625) were grown in IMDM Iscove's Modified Dulbecco's Medium (SIGMA #17633) supplemented with: 3.024 g/l sodium bicarbonate, hypoxanthine 1 mM, thymidine 0.16 mM, bathocuprione sulfonic acid 0.05 mM, cysteine 1.5 mM, ß-mercaptoethanol […] and 10% foetal bovine serum (heat-inactivated at 56° C. for 30 min). Parasites were grown at 37° C. in flasks with vented caps in a 5% CO2 incubator to a maximum cell density of about 2×10^6/ml and diluted every two-three days.
The compounds of the invention were dissolved in DMSO and transferred to assay plates by acoustic droplet ejection (ATS-100, EDC Biosystems, USA) in order to obtain an appropriate concentration and to keep the concentration of DMSO below or equal to 0.25% in the final assay volume of 30 μL. 1500 parasites resuspended in 30 μL of culture medium were then transferred to each well of a 384-well plate.
After an incubation period of 24 hours at 37° C., each well is added 15 μl of CellTiter-Glo® Reagent (Promega) and incubated at room temperature. 5-10 min post incubation, the plate is read using a luminometer (ViewLux®). A known inhibitor of the growth of T. brucei was used as the reference positive control.

Row | SMILES | EC50
1 | COc1nc2ccccc2cc1-c1cnc(C2CN(CC3CCOC3)CCN2C(=O)Cn2c(=O)ncc3ccccc32)[nH]1 (stereo not shown) | 1010 to 5000 nM
2 | COc1nc2ccccc2cc1-c1cnc(C2CN(CC3CCOC3)CCN2C(=O)Cn2ccc3cc(C#N)ccc32)[nH]1 (stereo not shown) | 510 to 1000 nM
3 | COc1nc2ccccc2cc1-c1cnc(C2CN(CC3CCOC3)CCN2C(=O)Cn2ccnc2-c2ccccc2)[nH]1 (stereo not shown) | 1010 to 5000 nM
4 | COc1nc2ccccc2cc1-c1cnc(C2CN(CC3CCOC3)CCN2C(=O)Cc2ccc(-c3nccnc3C)cc2)[nH]1 (stereo not shown) | 1010 to 5000 nM
5 | COc1nc2ccccc2cc1-c1cnc(C2CNCCN2C(=O)Cn2c(C)nc3ccccc32)[nH]1 (stereo not shown) | 1010 to 5000 nM
6 | COc1nc2ccccc2cc1-c1cnc(C2CN(CC3CCOC3)CCN2C(=O)Cc2c[nH]c3ccncc23)[nH]1 (stereo not shown) | 1010 to 5000 nM
7 | COc1nc2ccccc2cc1-c1cnc(C2CN(CC3CCOC3)CCN2C(=O)Cc2nc(-c3ccccc3)oc2C)[nH]1 (stereo not shown) | 1010 to 5000 nM
8 | COc1nc2ccccc2cc1-c1cnc(C2CN(CC3CCOC3)CCN2C(=O)Cc2c(C)[nH]c3ccccc23)[nH]1 (stereo not shown) | 100 to 500 nM
9 | Cc1[nH]c2ccc(F)cc2c1CC(=O)N1CCN(CC2CCOC2)CC1c1ncc(-c2ccc(-n3cccn3)cc2)[nH]1 (stereo not shown) | 1010 to 5000 nM
10 | COc1nc2ccccc2cc1-c1cnc(C2CS(=O)(=O)CCN2C(=O)Cn2c(C)nc3ccccc32)[nH]1 (stereo not shown) | 1010 to 5000 nM
11 | COc1nc2ccccc2cc1-c1cnc(C2CN(C3CCS(=O)(=O)CC3)CCN2C(=O)Cc2c(C)[nH]c3ccc(F)cc23)[nH]1 (stereo not shown) | 100 to 500 nM
12 | COc1nc2ccccc2cc1-c1cnc(C2CN(CC3CCOC3)CCN2C(=O)Cc2ccc(N3CCNC3=O)cc2)[nH]1 (stereo not shown) | 1010 to 5000 nM
13 | CCC(=O)CCC(=O)N1CCN(C(=O)Cc2c(C)[nH]c3ccc(OC)cc23)C(c2ncc(-c3ccc4ccccc4c3)[nH]2)C1 (stereo not shown) | 100 to 500 nM
14 | COc1nc2ccccc2cc1-c1cnc(C2CN(CC3CCCC3)CCN2C(=O)Cc2c(C)[nH]c3ccc(F)cc23)[nH]1 (stereo not shown) | 100 to 500 nM
15 | COc1nc2ccccc2cc1-c1cnc(C2CN(CC3CC3)CCN2C(=O)Cc2c(C)[nH]c3ccc(F)cc23)[nH]1 (stereo not shown) | 100 to 500 nM
16 | COc1nc2ccccc2cc1-c1cnc(C2CN(Cc3ccccc3)CCN2C(=O)Cc2c(C)[nH]c3ccc(F)cc23)[nH]1 (stereo not shown) | 100 to 500 nM
17 | COc1nc2ccccc2cc1-c1cnc(C2CN(C3CCC3)CCN2C(=O)Cc2c(C)[nH]c3ccc(F)cc23)[nH]1 (stereo not shown) | 100 to 500 nM
18 | COc1nc2ccccc2cc1-c1cnc(C2CN(CC3CCOC3)CCN2C(=O)Cn2nnc3ccccc32)[nH]1 (stereo not shown) | 510 to 1000 nM
19 | COc1nc2ccccc2cc1-c1cnc(C2CN(CC3CCOC3)CCN2C(=O)Cn2nc(C)c3ccccc3c2=O)[nH]1 (stereo not shown) | 510 to 1000 nM
20 | COc1nc2ccccc2cc1-c1cnc(C2CN(CC3CCOC3)CCN2C(=O)CN2C(=O)c3ccccc3C2=O)[nH]1 (stereo not shown) | 510 to 1000 nM
21 | COc1nc2ccccc2cc1-c1cnc(C2CS(=O)(=O)CCN2C(=O)Cn2nc(C)c3ccccc3c2=O)[nH]1 (stereo not shown) | 1010 to 5000 nM
22 | COc1nc2ccccc2cc1-c1cnc(C2CN(CC3CCOC3)CCN2C(=O)Cn2c(C3CC3)nc3ccccc32)[nH]1 (stereo not shown) | 100 to 500 nM
23 | COc1nc2ccccc2cc1-c1cnc(C2CN(CC3CCOC3)CCN2C(=O)Cn2nc3ccccc3n2)[nH]1 (stereo not shown) | 1010 to 5000 nM
24 | COc1nc2ccccc2cc1-c1cnc(C2CN(CC3CCOC3)CCN2C(=O)Cn2c(C)nc3cc(F)ccc32)[nH]1 (stereo not shown) | 100 to 500 nM
25 | COc1nc2ccccc2cc1-c1cnc(C2CN(C3CCN(C)CC3)CCN2C(=O)Cc2c(C)[nH]c3ccc(F)cc23)[nH]1 (stereo not shown) | 510 to 1000 nM
26 | COc1nc2ccccc2cc1-c1cnc(C2CN(Cc3cn(C)nn3)CCN2C(=O)Cc2c(C)[nH]c3ccc(F)cc23)[nH]1 (stereo not shown) | 100 to 500 nM
27 | COc1nc2ccccc2cc1-c1cnc(C2CN(Cc3cccnc3)CCN2C(=O)Cc2c(C)[nH]c3ccc(F)cc23)[nH]1 (stereo not shown) | 100 to 500 nM
28 | COc1nc2ccccc2cc1-c1cnc(C2CN(Cc3cocn3)CCN2C(=O)Cc2c(C)[nH]c3ccc(F)cc23)[nH]1 (stereo not shown) | 100 to 500 nM

Row | SMILES | EC50
29 | COc1nc2ccccc2cc1-c1cnc(C2CN(C(=O)C3CCN(C)CC3)CCN2C(=O)Cc2c(C)[nH]c3ccc(F)cc23)[nH]1 (stereo not shown) | 1010 to 5000 nM
30 | Cc1[nH]c2ccc(F)cc2c1CC(=O)N1CCS(=O)(=O)CC1c1ncc(-c2ccc3ccccc3c2)[nH]1 (stereo not shown) | 100 to 500 nM
31 | COc1nc2ccccc2cc1-c1cnc(C2CN(C(=O)c3cnn(C(C)C)c3)CCN2C(=O)Cc2c(C)[nH]c3ccc(F)cc23)[nH]1 (stereo not shown) | 1010 to 5000 nM
32 | COc1ncc(CN2CCN(C(=O)Cc3c(C)[nH]c4ccc(F)cc34)C(c3ncc(-c4cc5ccccc5nc4OC)[nH]3)C2)cn1 (stereo not shown) | 100 to 500 nM
33 | COc1nc2ccccc2cc1-c1cnc(C2CN(Cc3ccoc3)CCN2C(=O)Cc2c(C)[nH]c3ccc(F)cc23)[nH]1 (stereo not shown) | 100 to 500 nM
34 | COc1nc2ccccc2cc1-c1cnc(C2CN(CC(C)C)CCN2C(=O)Cc2c(C)[nH]c3ccc(F)cc23)[nH]1 (stereo not shown) | 100 to 500 nM
35 | COc1ccc2[nH]c(C)c(CC(=O)N3CCNCC3c3ncc(-c4cc5ccccc5nc4OC)[nH]3)c2c1 (stereo not shown) | 510 to 1000 nM
36 | COc1nc2ccccc2cc1-c1cnc(C2CN(CC3CCOC3)CCN2C(=O)Cn2c(C)nc3cc(F)c(F)cc32)[nH]1 (stereo not shown) | 100 to 500 nM
37 | COc1nc2ccccc2cc1-c1cnc(C2CN(CC3CCOC3)CCN2C(=O)Cn2c(C)nc3ccc(F)cc32)[nH]1 (stereo not shown) | 100 to 500 nM
38 | COc1nc2ccccc2cc1-c1cnc(C2CN(CC3CCOC3)CCN2C(=O)Cc2noc3ccccc23)[nH]1 (stereo not shown) | 510 to 1000 nM
39 | COc1nc2ccccc2cc1-c1cnc(C2CN(CC3CCOC3)CCN2C(=O)Cc2cnc3ccccn23)[nH]1 (stereo not shown) | 1010 to 5000 nM
40 | COc1cccc(CCC(=O)N2CCN(CC3CCOC3)CC2c2ncc(-c3cc4ccccc4nc3OC)[nH]2)c1 (stereo not shown) | 1010 to 5000 nM
41 | COc1nc2ccccc2cc1-c1cnc(C2CN(Cc3cc[n+]([O-])cc3)CCN2C(=O)Cc2c(C)[nH]c3ccc(F)cc23)[nH]1 (stereo not shown) | 1010 to 5000 nM
42 | COc1ccc2c(c1)C(CC(=O)N1CCN(CC3CCOC3)CC1c1ncc(-c3cc4ccccc4nc3OC)[nH]1)C(=O)N2 (stereo not shown) | 1010 to 5000 nM
43 | CCC(=O)CCCN1CCN(C(=O)Cc2ccccc2)C(c2ncc(-c3ccc4ccccc4c3)[nH]2)C1 (stereo not shown) | 1010 to 5000 nM
44 | COc1nc2ccccc2cc1-c1cnc(C2CN(CC3CCOC3)CCN2C(=O)c2cc(C)n(Cc3ccccc3)n2)[nH]1 (stereo not shown) | 1010 to 5000 nM
45 | COc1nc2ccccc2cc1-c1cnc(C2CN(CC3CCOC3)CCN2C(=O)c2c(-c3ccccc3)noc2C)[nH]1 (stereo not shown) | 1010 to 5000 nM
46 | COc1nc2ccccc2cc1-c1cnc(C2CN(CC3CCOC3)CCN2C(=O)c2ccc(C3CCCO3)s2)[nH]1 (stereo not shown) | 1010 to 5000 nM
47 | COc1nc2ccccc2cc1-c1cnc(C2CN(CC3CCOC3)CCN2C(=O)c2ccnc3ccccc23)[nH]1 (stereo not shown) | 1010 to 5000 nM
48 | COc1nc2ccccc2cc1-c1cnc(C2CN(CC3CCOC3)CCN2C(=O)c2sc(-c3cnccn3)nc2C)[nH]1 (stereo not shown) | 1010 to 5000 nM
49 | COc1nc2ccccc2cc1-c1cnc(C2CN(CC3CCOC3)CCN2C(=O)c2cnc3ccccc3c2)[nH]1 (stereo not shown) | 1010 to 5000 nM
50 | COc1nc2ccccc2cc1-c1cnc(C2CN(CC3CCOC3)CCN2C(=O)c2ccc3ncccc3c2)[nH]1 (stereo not shown) | 1010 to 5000 nM
51 | COc1ccc(-c2ccc(C(=O)N3CCN(CC4CCOC4)CC3c3ncc(-c4cc5ccccc5nc4OC)[nH]3)o2)cc1 (stereo not shown) | 1010 to 5000 nM
52 | COc1nc2ccccc2cc1-c1cnc(C2CN(C(=O)OCc3ccccc3)CCN2C(=O)Cn2c(C)nc3ccccc32)[nH]1 (stereo not shown) | 1010 to 5000 nM
53 | COc1nc2ccccc2cc1-c1cnc(C2CN(C(=O)OCc3ccccc3)CCN2C(=O)Cc2c(C)[nH]c3ccc(F)cc23)[nH]1 (stereo not shown) | 1010 to 5000 nM
54 | COc1nc2ccccc2cc1-c1cnc(C2CN(CC3CCOC3)CCN2C(=O)c2nccc3ccccc23)[nH]1 (stereo not shown) | 1010 to 5000 nM
55 | COc1ccc2[nH]c(C)c(CC(=O)N3CCN(C(=O)OC(C)(C)C)CC3c3ncc(-c4cc5ccccc5nc4OC)[nH]3)c2c1 (stereo not shown) | 100 to 500 nM
